Measurements from US11149033B2, “Heteroaryl compound, enantiomer, diastereomer or pharmaceutically acceptable salt thereof, and antiviral composition containing same as active ingredient” (priority 2016, dated 2021).

How the values were obtained:
A/Perth/16/2009 (H3N2) = assay: Antiviral activity (drug efficacy evaluation by concentration) against A/Perth/16/2009 (H3N2); format: cell-based, A type influenza virus; conditions: Influenza A virus, H3N2; read-out: EC50
[1] = CC50 B/Florida/04/2006, cytotoxicity in the B/Florida/04/2006 assay
[2] = CC50, third EC50/CC50 column pair (c7), beside the EC50 of c6

SMILES | melting point | CC50 (in vitro; [1]) | CC50 (in vitro; CC50, beside the EC50 of c2) | CC50 (in vitro; CC50, beside the EC50 of c4) | CC50 (in vitro; [2]) | EC50 (A/Perth/16/2009 (H3N2))
Oc1ccccc1/C=C/c1nnc(Cc2cccc(Br)c2)o1 [Compound 218, 2-(2-(5-(3-bromobenzyl)-1,3,4-oxadiazol-2-yl)vinyl)phenol] | 179.9 °C | – | – | – | – | –
CSc1nnc(Cc2ccccc2)o1 [Compound 80, 2-benzyl-5-(methylthio)-1,3,4-oxadiazole] | – | > 50 µM | – | – | – | –
Fc1ccc(/C=C/c2nnc(Cc3cccc(Cl)n3)o2)c(Cl)c1 [Compound 219, 2-(2-chloro-4-fluorostyryl)-5-((6-chloropyridin-2-yl)methyl)-1,3,4-oxadiazole] | 145.2 °C | – | – | – | – | –
Fc1cccc(Cc2nnc(/C=C/c3ccc(F)cc3Cl)o2)c1 [Compound 226, 2-(2-chloro-4-fluorostyryl)-5-(3-fluorobenzyl)-1,3,4-oxadiazole] | 132.5 °C | – | – | – | – | –
O=C(Nc1ccc(F)cc1Cl)c1nnc(Cc2cccc(Br)c2)o1 [Compound 244, 5-(3-bromobenzyl)-N-(2-chloro-4-fluorophenyl)-1,3,4-oxadiazole-2-carboxamide] | 165.8 °C | – | – | – | – | –
CC(C)c1ccccc1/C=C/c1nnc(Cc2ccc(-c3ccccc3)cc2)o1 [Compound 142, 2-([1,1′-biphenyl]-4-ylmethyl)-5-(2-isopropylstyryl)-1,3,4-oxadiazole] | – | – | > 50 µM | > 50 µM | > 50 µM | –
[O-][S+](Cc1ccccc1-c1ccccc1)c1nnc(Cc2ccc(Br)cc2)o1 (stereo not shown) [Compound 59, 2-(([1,1′-biphenyl]-2-ylmethyl)sulfinyl)-5-(4-bromobenzyl)-1,3,4-oxadiazole] | – | > 50 µM | – | – | – | –
Cc1ccccc1CSc1ncc(CNc2ccc(Br)cc2)o1 [Compound 99, 4-bromo-N-((2-((2-methylbenzyl)thio)oxazol-5-yl)methyl)aniline] | – | – | > 50 µM | > 50 µM | > 50 µM | –
Brc1ccc(Cc2nnc(-c3ccc4ccccc4c3)o2)cc1 [Compound 98, 2-(4-bromobenzyl)-5-(naphthalen-2-yl)-1,3,4-oxadiazole] | – | – | > 50 µM | > 50 µM | > 50 µM | –
CN(c1ccc(Br)cc1)c1nnc(SCc2ccccc2-c2ccccc2)o1 [Compound 65, 5-(([1,1′-biphenyl]-2-ylmethyl)thio)-N-(4-bromophenyl)-N-methyl-1,3,4-oxadiazol-2-amine] | – | > 50 µM | – | – | – | –
Cc1ccccc1CCc1nnc(Cc2ccc(F)c(Cl)c2)o1 [Compound 108, 2-(3-chloro-4-fluorobenzyl)-5-(2-methylphenethyl)-1,3,4-oxadiazole] | – | – | > 50 µM | > 50 µM | > 50 µM | > 50 µM
Cc1cc(F)ccc1/C=C/c1nnc(Cc2cccc(Br)c2)o1 [Compound 186, 2-(3-bromobenzyl)-5-(4-fluoro-2-methylstyryl)-1,3,4-oxadiazole] | – | – | > 50 µM | > 50 µM | > 50 µM | –
CC(C)c1ccccc1/C=C/c1nnc(Cc2ccccc2)o1 [Compound 196, 2-benzyl-5-(2-isopropylstyryl)-1,3,4-oxadiazole] | – | – | > 50 µM | > 50 µM | > 50 µM | –
CC(C)c1ccc(Cc2nnc(SCc3ccccc3-c3ccccc3)o2)cc1 [Compound 107, 2-(([1,1′-biphenyl]-2-ylmethyl)thio)-5-(4-isopropylbenzyl)-1,3,4-oxadiazole] | – | – | > 50 µM | > 50 µM | > 50 µM | 20.6 µM
Cc1nc2ccccc2n1Cc1nnc(/C=C/c2ccc(F)cc2Cl)o1 [Compound 203, (E)-2-(2-chloro-4-fluorostyryl)-5-((2-methyl-1H-benzo[d]imidazol-1-yl)methyl)-1,3,4-oxadiazole] | – | – | > 50 µM | > 50 µM | > 50 µM | 15.4 µM
Fc1ccc(Oc2ccccc2/C=C/c2nnc(Cc3ccc(Br)cc3)o2)cc1 [Compound 155, 2-(4-bromobenzyl)-5-(2-(4-fluorophenoxy)styryl)-1,3,4-oxadiazole] | – | – | > 50 µM | > 50 µM | > 50 µM | –
